# Results from PubChem BioAssay (NCI).
#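 GI50 is the concentration that inhibits growth by half. Definition used: TGI = concentration required for complete inhibition of growth.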
# Experiments:
# Assay in all cases: inhibition of tumour cell growth, NCI panel, 384-well format
# SK-MEL-28 melanoma = test system: SK-MEL-28 melanoma
# SW-620 colon = test system: SW-620 colon
# MOLT-4 leukemia = test system: MOLT-4 leukemia
# CCRF-CEM leukemia = test system: CCRF-CEM leukemia
# NCI-H322M lung = test system: NCI-H322M lung
# MDA-MB-231 breast = test system: MDA-MB-231 breast
# UACC-257 melanoma = test system: UACC-257 melanoma
# SK-MEL-5 melanoma = test system: SK-MEL-5 melanoma
# NCI-H23 lung = test system: NCI-H23 lung
# TK-10 renal = test system: TK-10 renal
# SK-OV-3 ovarian = test system: SK-OV-3 ovarian
# NCI-H226 lung = test system: NCI-H226 lung
# HCC-2998 colon = test system: HCC-2998 colon
# BT-549 breast = test system: BT-549 breast
# SF-539 CNS = test system: SF-539 CNS
# UO-31 renal = test system: UO-31 renal
# SF-268 CNS = test system: SF-268 CNS
# SNB-19 CNS = test system: SNB-19 CNS
# OVCAR-5 ovarian = test system: OVCAR-5 ovarian
# A549 NSCLC = test system: A549 NSCLC
# SN12C renal = test system: SN12C renal
# HCT-15 colon = test system: HCT-15 colon
# T-47D breast = test system: T-47D breast
# RXF 393 renal = test system: RXF 393 renal
# IGROV1 ovarian = test system: IGROV1 ovarian
# MALME-3M melanoma = test system: MALME-3M melanoma
# HS 578T breast = test system: HS 578T breast
# CAKI-1 renal = test system: CAKI-1 renal
# NCI/ADR-RES ovarian = test system: NCI/ADR-RES ovarian
# K-562 leukemia = test system: K-562 leukemia
# SNB-75 CNS = test system: SNB-75 CNS
# OVCAR-8 ovarian = test system: OVCAR-8 ovarian
# OVCAR-4 ovarian = test system: OVCAR-4 ovarian
# HOP-92 NSCLC = test system: HOP-92 NSCLC
# U251 glioblastoma = test system: U251 glioblastoma
# ACHN renal = test system: ACHN renal
# RPMI-8226 leukemia = test system: RPMI-8226 leukemia
# PC-3 prostate = test system: PC-3 prostate
# HOP-62 NSCLC = test system: HOP-62 NSCLC
# NCI-H460 NSCLC = test system: NCI-H460 NSCLC
# HL-60(TB) leukemia = test system: HL-60(TB) leukemia
# DU-145 prostate = test system: DU-145 prostate
# EKVX NSCLC = test system: EKVX NSCLC
# 786-0 renal = test system: 786-0 renal
# LOX IMVI melanoma = test system: LOX IMVI melanoma
# SK-MEL-2 melanoma = test system: SK-MEL-2 melanoma
# KM12 colon = test system: KM12 colon
compound,measurement,setting,value
Cn1cc(-c2ccc(-c3cncc(Cl)c3N3CCC4(CCNC4=O)CC3)cc2)cn1,GI50,SK-MEL-28 melanoma,20 µM
same,TGI,SK-MEL-28 melanoma,> 65.3 µM
same,GI50,SW-620 colon,12.3 µM
same,TGI,SW-620 colon,> 86.5 µM
same,GI50,MOLT-4 leukemia,6.92 µM
same,TGI,MOLT-4 leukemia,24.2 µM
same,GI50,CCRF-CEM leukemia,8.63 µM
same,TGI,CCRF-CEM leukemia,23.9 µM
same,GI50,NCI-H322M lung,22.3 µM
same,TGI,NCI-H322M lung,> 95.3 µM
same,GI50,MDA-MB-231 breast,17.1 µM
same,TGI,MDA-MB-231 breast,> 76.7 µM
same,GI50,UACC-257 melanoma,35.6 µM
same,TGI,UACC-257 melanoma,> 71.3 µM
same,GI50,SK-MEL-5 melanoma,15.6 µM
same,TGI,SK-MEL-5 melanoma,33.5 µM
same,GI50,NCI-H23 lung,22.5 µM
same,TGI,NCI-H23 lung,59 µM
same,GI50,TK-10 renal,11.2 µM
same,TGI,TK-10 renal,99.9 µM
same,GI50,SK-OV-3 ovarian,34 µM
same,TGI,SK-OV-3 ovarian,> 100 µM
same,GI50,NCI-H226 lung,18.6 µM
same,TGI,NCI-H226 lung,59.8 µM
same,GI50,HCC-2998 colon,15.5 µM
same,TGI,HCC-2998 colon,47.9 µM
same,GI50,BT-549 breast,19.9 µM
same,TGI,BT-549 breast,58.5 µM
same,GI50,SF-539 CNS,41.4 µM
same,TGI,SF-539 CNS,> 100 µM
same,GI50,UO-31 renal,26.9 µM
same,TGI,UO-31 renal,> 100 µM
same,GI50,SF-268 CNS,45.8 µM
same,TGI,SF-268 CNS,> 100 µM
same,GI50,SNB-19 CNS,47.4 µM
same,TGI,SNB-19 CNS,> 100 µM
same,GI50,OVCAR-5 ovarian,> 100 µM
same,TGI,OVCAR-5 ovarian,> 100 µM
same,GI50,A549 NSCLC,24.5 µM
same,TGI,A549 NSCLC,98 µM
same,GI50,SN12C renal,45.2 µM
same,TGI,SN12C renal,> 100 µM
same,GI50,HCT-15 colon,14.6 µM
same,TGI,HCT-15 colon,> 66.4 µM
same,GI50,T-47D breast,13.5 µM
same,TGI,T-47D breast,48.4 µM
same,GI50,RXF 393 renal,14.7 µM
same,TGI,RXF 393 renal,> 96.1 µM
same,GI50,IGROV1 ovarian,25.2 µM
same,TGI,IGROV1 ovarian,> 100 µM
same,GI50,MALME-3M melanoma,30.3 µM
same,TGI,MALME-3M melanoma,> 100 µM
same,GI50,HS 578T breast,49.1 µM
same,TGI,HS 578T breast,> 100 µM
same,GI50,CAKI-1 renal,22.5 µM
same,TGI,CAKI-1 renal,> 100 µM
same,GI50,NCI/ADR-RES ovarian,22.1 µM
same,TGI,NCI/ADR-RES ovarian,> 71.5 µM
same,GI50,K-562 leukemia,19 µM
same,TGI,K-562 leukemia,> 100 µM
same,GI50,SNB-75 CNS,40 µM
same,TGI,SNB-75 CNS,> 95.9 µM
same,GI50,OVCAR-8 ovarian,25.1 µM
same,TGI,OVCAR-8 ovarian,> 100 µM
same,GI50,OVCAR-4 ovarian,39.6 µM
same,TGI,OVCAR-4 ovarian,> 90 µM
same,GI50,HOP-92 NSCLC,40.6 µM
same,TGI,HOP-92 NSCLC,> 100 µM
same,GI50,U251 glioblastoma,30.4 µM
same,TGI,U251 glioblastoma,> 80.1 µM
same,GI50,ACHN renal,15.4 µM
same,TGI,ACHN renal,81.9 µM
same,GI50,RPMI-8226 leukemia,1.17 µM
same,TGI,RPMI-8226 leukemia,18.4 µM
same,GI50,PC-3 prostate,26.3 µM
same,TGI,PC-3 prostate,> 100 µM
same,GI50,HOP-62 NSCLC,15.2 µM
same,TGI,HOP-62 NSCLC,39.9 µM
same,GI50,NCI-H460 NSCLC,21.1 µM
same,TGI,NCI-H460 NSCLC,62.2 µM
same,GI50,HL-60(TB) leukemia,1.73 µM
same,TGI,HL-60(TB) leukemia,5.74 µM
same,GI50,DU-145 prostate,11 µM
same,TGI,DU-145 prostate,62.2 µM
same,GI50,EKVX NSCLC,20.8 µM
same,TGI,EKVX NSCLC,78.8 µM
same,GI50,786-0 renal,11.8 µM
same,TGI,786-0 renal,> 92.2 µM
same,GI50,LOX IMVI melanoma,29.5 µM
same,TGI,LOX IMVI melanoma,> 75.1 µM
same,GI50,SK-MEL-2 melanoma,16.9 µM
same,TGI,SK-MEL-2 melanoma,39.2 µM
same,GI50,KM12 colon,21.3 µM
same,TGI,KM12 colon,> 94.3 µM
COc1ccc2c(Oc3ccc(NC(=O)c4c(C)n(CC(C)(C)O)n(-c5ccccc5)c4=O)nc3)ccnc2c1,GI50,SK-MEL-28 melanoma,25.2 µM
same,TGI,SK-MEL-28 melanoma,84.8 µM
same,GI50,SW-620 colon,56.2 µM
same,TGI,SW-620 colon,> 100 µM
same,GI50,MOLT-4 leukemia,3.58 µM
same,TGI,MOLT-4 leukemia,12.4 µM
same,GI50,CCRF-CEM leukemia,10.3 µM
same,TGI,CCRF-CEM leukemia,22 µM
same,GI50,NCI-H322M lung,10.3 µM
same,TGI,NCI-H322M lung,> 100 µM
same,GI50,MDA-MB-231 breast,9.28 µM
same,TGI,MDA-MB-231 breast,29.1 µM
same,GI50,UACC-257 melanoma,25.1 µM
same,TGI,UACC-257 melanoma,> 100 µM
same,GI50,SK-MEL-5 melanoma,13.8 µM
same,TGI,SK-MEL-5 melanoma,> 100 µM
same,GI50,NCI-H23 lung,10.8 µM
same,TGI,NCI-H23 lung,> 100 µM
same,GI50,TK-10 renal,10.8 µM
same,TGI,TK-10 renal,100 µM
same,GI50,SK-OV-3 ovarian,4.04 µM
same,TGI,SK-OV-3 ovarian,> 100 µM
same,GI50,NCI-H226 lung,22.6 µM
same,TGI,NCI-H226 lung,> 100 µM
same,GI50,HCC-2998 colon,> 100 µM
same,TGI,HCC-2998 colon,> 100 µM
same,GI50,BT-549 breast,11.5 µM
same,TGI,BT-549 breast,25.7 µM
same,GI50,SF-539 CNS,10.1 µM
same,TGI,SF-539 CNS,64 µM
same,GI50,UO-31 renal,18.4 µM
same,TGI,UO-31 renal,> 100 µM
same,GI50,SF-268 CNS,19.9 µM
same,TGI,SF-268 CNS,> 100 µM
same,GI50,SNB-19 CNS,34.1 µM
same,TGI,SNB-19 CNS,> 100 µM
same,GI50,OVCAR-5 ovarian,37.8 µM
same,TGI,OVCAR-5 ovarian,> 100 µM
same,GI50,A549 NSCLC,16.8 µM
same,TGI,A549 NSCLC,> 100 µM
same,GI50,SN12C renal,2.24 µM
same,TGI,SN12C renal,86.8 µM
same,GI50,HCT-15 colon,6.05 µM
same,TGI,HCT-15 colon,> 100 µM
same,GI50,T-47D breast,33.7 µM
same,TGI,T-47D breast,> 100 µM
same,GI50,RXF 393 renal,2.42 µM
same,TGI,RXF 393 renal,9.27 µM
same,GI50,IGROV1 ovarian,9.46 µM
same,TGI,IGROV1 ovarian,> 100 µM
same,GI50,MALME-3M melanoma,5.26 µM
same,TGI,MALME-3M melanoma,60 µM
same,GI50,HS 578T breast,4.65 µM
same,TGI,HS 578T breast,34.6 µM
same,GI50,CAKI-1 renal,3.45 µM
same,TGI,CAKI-1 renal,> 100 µM
same,GI50,NCI/ADR-RES ovarian,25.7 µM
same,TGI,NCI/ADR-RES ovarian,> 100 µM
same,GI50,K-562 leukemia,1.16 µM
same,TGI,K-562 leukemia,2.51 µM
same,GI50,SNB-75 CNS,7.61 µM
same,TGI,SNB-75 CNS,53.1 µM
same,GI50,OVCAR-8 ovarian,13.8 µM
same,TGI,OVCAR-8 ovarian,> 100 µM
same,GI50,OVCAR-4 ovarian,15.2 µM
same,TGI,OVCAR-4 ovarian,> 100 µM
same,GI50,HOP-92 NSCLC,10.4 µM
same,TGI,HOP-92 NSCLC,41.1 µM
same,GI50,U251 glioblastoma,24.7 µM
same,TGI,U251 glioblastoma,> 100 µM
same,GI50,ACHN renal,5.81 µM
same,TGI,ACHN renal,> 100 µM
same,GI50,RPMI-8226 leukemia,6.85 µM
same,TGI,RPMI-8226 leukemia,19.4 µM
same,GI50,PC-3 prostate,18.5 µM
same,TGI,PC-3 prostate,> 100 µM
same,GI50,HOP-62 NSCLC,15.3 µM
same,TGI,HOP-62 NSCLC,> 100 µM
same,GI50,NCI-H460 NSCLC,14.3 µM
same,TGI,NCI-H460 NSCLC,> 100 µM
same,GI50,HL-60(TB) leukemia,5.49 µM
same,TGI,HL-60(TB) leukemia,14.9 µM
same,GI50,DU-145 prostate,8.18 µM
same,TGI,DU-145 prostate,> 100 µM
same,GI50,EKVX NSCLC,37.3 µM
same,TGI,EKVX NSCLC,> 100 µM
same,GI50,786-0 renal,19.8 µM
same,TGI,786-0 renal,> 100 µM
same,GI50,LOX IMVI melanoma,47.2 µM
same,TGI,LOX IMVI melanoma,> 100 µM
same,GI50,SK-MEL-2 melanoma,13 µM
same,TGI,SK-MEL-2 melanoma,33.4 µM
same,GI50,KM12 colon,0.73 µM
same,TGI,KM12 colon,> 100 µM
